Assay results taken from US20210340526A1, “NOVEL METHOD FOR TRANSDUCING PROTEIN-PROTEIN INTERACTIONS” (ETH ZÜRICH, priority 2018, published 2021).
Each block holds one compound with its values, some of them ahead of it.

Legend:
FKBP and FRB^T2098L = FKBP and FRB^T2098L (Homo sapiens, UniProt P42345+P62942, T2098L); experiment: two-component (NarX/NarL) reporter assay of ligand-induced FKBP/FRB heterodimerization in HEK293 cells; format: cell-based; conditions: pair FR::H^mut and FK::N^mut, NarL and NarL-activated mCerulean reporter, HEK293, Hill function fit of dose-response; read-out: EC50 in the context of the assay
Source text: To enable bona fide signalling, the dimerization of the NarX domains should be preferably controlled by an external stimulus. Inducible protein-protein interaction is a common signalling mechanism both in the cytoplasm and across the membrane. A well characterized ligand-induced heterodimerization takes place between the proteins FK506-binding protein 12 (FKBP) and FKBP12-rapamycin binding domain (FRB) mutant FRB^T2098L in the presence of the small molecule A/C heterodimerize (a rapamycin analog Cl 6-(S)-7-methylindolerapamycin, known also as AP21967).
To find out if NarX domains are capable of transducing this interaction (FIG. 3a), the complementing histidine and asparagine NarX mutants described above were fused at their N-terminus to the FKBP (FK) and the FRB^T2098L (FR) proteins, respectively, resulting in the fusions FK::NarX^379to598H399Q (FK::H^mut) and FR::NarX^379to598N509A (FR::N^mut), and the inverse pair FR::H^mut and FK::N^mut. […] Next, the inventors probed the ligand-induced signalling in a fashion similar to the one used for SynZip1-SynZip2 experiments, expressing different fusion variants and control constructs in HEK293 cells, in the presence of the response regulator NarL and NarL-activated reporter construct, this time with and without the ligand (FIG. 3b, FIG. 8). As expected, full length wild type NarX was constitutively active. […]

NarX/NarL system = experiment: control: effect of ligand on NarX/NarL signalling in HEK cells; format: cell-based; conditions: 100 nM; HEK cells with NarX or NarX^379to598, NarL and NarL-activated reporter
Description: To find out if NarX domains are capable of transducing this interaction (FIG. 3a), the complementing histidine and asparagine NarX mutants described above were fused at their N-terminus to the FKBP (FK) and the FRB^T2098L (FR) proteins, respectively, resulting in the fusions FK::NarX^379to598H399Q (FK::H^mut) and FR::NarX^379to598N509A (FR::N^mut), and the inverse pair FR::H^mut and FK::N^mut. […]
The cells were prepared for FACS analysis 48 h after transfection by removing the medium and incubating the cells with 200 μl StemPro™ Accutase™ Cell Dissociation Reagent (Gibco, cat #A11105-01) at 37° C. for 5 minutes. […] The prepared samples were measured using a BD LSR Fortessa II Cell Analyzer with a combination of excitation and emission that minimizes the crosstalk between different fluorescent reporters. Cerulean was measured with a 445 nm laser and a 473/10 nm emission filter, mCherry with a 561 nm excitation laser coupled to a 600 nm longpass filter and 610/20 emission filter. The Cerulean and the mCherry were measured, respectively, at PMT voltage of 330 and 310 in all the experiments. […]

CMV promoter = experiment: iRFP expression from constitutive promoter under stimulation, HEK cells; format: cell-based; conditions: 1 μM of procaterol or 2 μM of epinephrine versus DMEM without ligand
Description: (§1) (a) iRFP fluorescence of HEK cells transfected with the plasmid expressing iRFP from the CMV promoter (white bar) or from the EF1α promoter (black bars). The reporter expression in DMEM without any ligand or in the presence of 1 μM of procaterol or 2 μM of epinephrine is shown as indicated. The bar charts display iRFP level normalized to the frequency of the transfection marker Citrine-positive cells (rel. u.) as mean±SD of independent biological triplicates. (b) Activity of the NarX/NarL expressed from CMV or EF1a promoters. Every transfection contains NarL-regulated mCerulean fluorescent protein reporter and plasmids expressing NarL and NarX from CMV, EF1α or EF1α-V1 promoters, as indicated in the chart.
(§2) For any synthetic signalling system, it is important to avoid non-specific changes to the signalling readout. In the system of the invention, the components are expressed from constitutive promoters. However, these promoters are in fact controlled by highly-expressed transcription factors such as Sp1, and there is always a risk that these factors are directly affected by external stimuli via unrelated endogenous pathways. This would result in the change of constitutive expression, and apparent change in the signalling readout that is unrelated to the studied effect and is artefactual. To eliminate these confounding factors, the inventors examined a number of constitutive promoters for their robustness under various stimulation conditions and compared the expression of iRFP from the CMV and EF1α promoters in the presence of different compounds often used to induce cell signalling (Epinephrine and procaterol).

EF1α promoter = experiment: as above; format: cell-based; conditions: 1 μM of procaterol or 2 μM of epinephrine versus DMEM without ligand
Description: as §1, §2

[1] = target: ADRB2^1to341::AVPR2^343to371::NarX^379to598 H399Q (UniProt P07550); experiment: cell-based or functional assay
GPCR ADRB2-AVPR2 = target: T1, GPCR ADRB2-AVPR2 (Homo sapiens, UniProt P07550, E27Q/G16R); experiment: two-component (NarX/NarL) reporter assay of GPCR/beta-arrestin interaction, pair ADRB2-AVPR2::H^mut and beta-arrestin::N^mut, in HEK293 cells; format: cell-based
T1 construct: expressed in transfected cells; host or cells: HEK293

FKBP and FRB^T2098L, sequence (P62942 whole entry, the tested form may be a part): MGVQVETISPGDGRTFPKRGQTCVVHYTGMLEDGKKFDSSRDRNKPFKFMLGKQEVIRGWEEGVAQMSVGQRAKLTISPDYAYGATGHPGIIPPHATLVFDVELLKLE
FKBP and FRB^T2098L, sequence (P42345 2012-2144 T2098L limits assumed): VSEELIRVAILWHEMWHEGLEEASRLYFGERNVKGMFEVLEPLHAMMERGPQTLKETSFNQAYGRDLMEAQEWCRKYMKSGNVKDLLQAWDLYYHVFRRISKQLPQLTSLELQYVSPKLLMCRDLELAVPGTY

EC50 (FKBP and FRB^T2098L): 1.3 nM
Compound: Cl 6-(S)-7-methylindolerapamycin [A/C]
effect on signalling via the wild-type NarX/NarL system (NarX/NarL system): did not affect

Compound: CNC[C@H](O)c1ccc(O)c(O)c1 [epinephrine]
activity of the CMV promoter (iRFP expression) (CMV promoter): induced by a factor of two
activity of the EF1α promoter (iRFP expression) (EF1α promoter): not affected

EC50 of the small-molecule agonist isoproterenol for reporter induction [1]: 30 nM
EC50 of the small-molecule agonist procaterol for reporter induction [1]: 5 nM
EC50 of the small-molecule partial agonist clenbuterol for reporter induction [1]: 14 nM
IC50 of the small-molecule antagonist propranolol in the presence of procaterol (reporter) [1]: 2 nM
reporter expression with the partial agonist clenbuterol against the full agonists [1]: 3.5 times lower
Compound: ARRB2::NarX^379to598 N509A (from UniProt P32121 1-409)

EC50 (GPCR ADRB2-AVPR2; ADRB2-AVPR2::H^mut and beta-arrestin::N^mut, NarL-regulated mCerulean reporter, HEK293, read-out: EC50 from the dose-response curves): 5 nM
induction dynamic range of procaterol-triggered signalling (GPCR ADRB2-AVPR2; complementary NarX mutants fused to the GPCR receptor and beta-arrestin, with versus without procaterol): above 3 orders of magnitude
maximum response of downstream gene expression (GPCR ADRB2-AVPR2; saturating doses, full agonists): reach the same maximum response
Compound: CCC(NC(C)C)C(O)c1ccc(O)c2[nH]c(=O)ccc12 (stereo not drawn) [procaterol]
activity of the CMV promoter (iRFP expression) (CMV promoter): induced by a factor of two
activity of the EF1α promoter (iRFP expression) (EF1α promoter): not affected
effect on signalling via the wild-type NarX/NarL system (NarX/NarL system): did not affect
